Patent US20250082614A1, “METHODS OF USING RAD51 INHIBITORS FOR TREATMENT OF PANCREATIC CANCER” (Cyteir Therapeutics, Inc., priority 2019, published 2025)

Columns and labels:
[1] = system: Daudi cell line (AID positive); experiment: Cell killing assay in the Daudi cell line (AID positive), Cell-Titer Glo; assay type: cell-based; settings: Homo sapiens, 168 h; Daudi cells (AID positive), cell death on Day 7
Method: Primary screening was a phenotypic screen that utilized the synthetic lethal interaction between AID and RAD51 to identify compounds that were both potent and on target. AID expressing cells are dependent upon RAD51 for survival; inhibiting RAD51 in AID positive cells results in a cytotoxic effect.
The first step was to set up a cell killing assay in the Daudi cell line (AID positive). A 96 well u-bottom plate was prepared by writing the experiment number, plate number, date and initials in the top right corner of the plate lid. With a sterile 300 ml reservoir, and 25 ml serological pipette, evaporation buffer media was pipetted into reservoir in 25 ml increments. Using the liquid handler, 150 ul of evaporation buffer media was pipetted from reservoir into rows A and H, and Columns 1 and 12 of the 96 well u-bottom plate. Cell cultures were counted to obtain the density of cells per ml, and the culture viability. The cell density information was used to obtain 1,000,000 cells from culture using a 5 mL serological pipette into an epi tube. The cell density information from the culture was used to calculate the number of cells and volume of media needed for the assay to seed 1250 cells in 130 ul of media per available culture well in the 96 well u-bottom plate. Rows B through F were used for cells (50 wells in total), with row G left for an empty media control. The calculation was overestimated by 10 mL to account for the dead volume in the 300 ml reservoir. Once the media volume was calculated, the appropriate volume of media was pipetted in 25 mL increments into the 250 mL bottle using a 25 mL serological pipette. The 250 ml bottle was capped tightly, and placed into a 37° C. water bath for 2 minutes. While the culture media was warming, 10 mL of fresh media was pipetted from the 500 mL culture media bottle into a sterile 25 mL reservoir. Using the Eppendorf multichannel pipette, 130 ul of media was pipetted from the 25 mL reservoir into row G of the 96 well u-bottom plate. […]

[2] = Bi-directional Caco-2 permeability; assay type: in vitro ADME; settings: human; for Papp A→B at 90 min / Papp B→A at 90 min: Caco-2, 37° C., up to 90 minutes; for Papp A→B at 90 min: apical to basolateral, read-out: AB Papp (cm/sec × 10^6); for Papp B→A at 90 min: basolateral to apical, read-out: BA Papp (cm/sec × 10^6); for efflux ratio at 90 min: Caco-2 efflux ratio, read-out: BA/AB Ratio
Method: Bi-directional Caco-2 permeability was assayed. Caco-2 cells were seeded onto permeable polycarbonate supports and allowed to differentiate for about 3 weeks prior to being used in the assays. The cells were then exposed to the compounds from either the apical or basolateral sides and incubated at 37° C. for up to 90 minutes under light agitation. Compound transport was then measured using LC/MS/MS analysis at 30, 60, and 90 minutes.

[3] = Pharmacokinetic (PK) study, plasma by LC-MS; assay type: in vivo, rat; settings: po @ 80 mg/kg
Method: PK studies in mice were used to determine the fate of the compounds in a whole organism. Rats were treated with the compounds either orally of via IV at the indicated doses and followed for up to 24 hours. Plasma samples were taken at different time points and analyzed by LC-MS.

[4] = system: ARPE19/HPV16 (HPV Immortalized RPE); experiment: Cell line screen, potency assay; assay type: cell-based; settings: ARPE-19, AICDA expression Negative
Method: Percent cell death and EC50 values were calculated by comparing the cell viability of the compound treated wells to the non-treated wells. Normalized RLU values were obtained by subtracting the media well values from each of the wells in the same column, and then dividing that value by the DMSO treated cells values. The percent kill was then calculated by subtracting the normalized RLU value from 1 and multiplying by 100. The average normalized percent kill value and standard error of the mean was then calculated. The kill values were then inputted into Prism with the corresponding standard errors. In Prism a non-linear regression line was plotted with the data points using a semi-log scale, and the EC50 value was calculated.
The activity of the claimed compounds was measured in a variety of cell lines with different expression levels of activation induced cytidine deaminase (AICDA). The potency assay was repeated in all of the listed cell lines and the EC50 values recorded.

[5] = Human liver microsome stability; assay type: in vitro ADME; settings: human liver microsomes
Method: The stability of the claimed compounds was determined in the presences of human liver microsomes. The compounds were incubated with the microsomes at 37° C. for 45 minutes. Samples were analyzed using LC-MS/MS. Data analysis included half-life, clearance rate, and the percentage of hepatic blood flow […] for each of the compounds in the different species.

Row | SMILES | EC50 [1] [nM] | Papp A→B at 90 min [2] [×10⁻⁶ cm/s] | Papp B→A at 90 min [2] [×10⁻⁶ cm/s] | efflux ratio at 90 min [2] | F (%) @ 5 mg/kg ([3]; Rat Female) [%] | F (%) @ 5 mg/kg ([3]; Rat Male) [%] | EC50 [4] [nM] | % QH (percentage of hepatic blood flow) [5] [%]
1 | CC(C)OC(=O)Nc1ccc(-c2cnc(C3CCC(NC(=O)OC[C@@H]4CCCN4C)CC3)s2)c(S(=O)(=O)NC(C)(C)C)c1 (stereo partly drawn) [Ex. 9, isopropyl (3-(N-(tert-butyl)sulfamoyl)-4-(2-((1S,4r)-4-(((((S)-1-methylpyrrolidin-2-yl)methoxy)carbonyl)amino)cyclohexyl)thiazol-5-yl)phenyl)carbamate] | 100 to 1000 | – | – | – | – | – | – | –
2 | CC(C)OC(=O)NC1CCC(c2ncc(-c3ccc(NC(=O)OC[C@H]4CCCN4C)cc3S(=O)(=O)NC(C)(C)C)s2)CC1 (stereo partly drawn) [Ex. 34, isopropyl ((1R,4r)-4-(5-(2-(N-(tert-butyl)sulfamoyl)-4-(((((R)-1-methylpyrrolidin-2-yl)methoxy)carbonyl)amino)phenyl)thiazol-2-yl)cyclohexyl)carbamate] | 100 to 1000 | 0.4 | 45.2 | 104 | – | – | – | –
3 | CC(C)OC(=O)NC1CCC(c2ncc(-c3ccc(NC(=O)OC[C@@H]4CCCN4C)cc3S(=O)(=O)NC(C)(C)C)s2)CC1 (stereo partly drawn) [Ex. 35, isopropyl ((1S,4r)-4-(5-(2-(N-(tert-butyl)sulfamoyl)-4-(((((S)-1-methylpyrrolidin-2-yl)methoxy)carbonyl)amino)phenyl)thiazol-2-yl)cyclohexyl)carbamate] | 100 to 1000 | 0.4 | 41 | 99.1 | – | – | – | –
4 | CC(C)OC(=O)Nc1ccc(-c2cnc([C@H]3CC[C@H](NC(=O)OC(C)C)CC3)s2)c(S(=O)(=O)NC(C)(C)C)c1 [Ex. 67A, trans-isopropyl N-[3-(tert-butylsulfamoyl)-4-[2-[4-(isopropoxycarbonylamino)cyclohexyl]thiazol-5-yl]phenyl]carbamate] | – | – | – | – | 86.5 | 46.9 | > 10000 | <20.3
